Test [1] concerns the target T1, IDO1 (Homo sapiens, UniProt P14902). Put plainly: IDO1 enzymatic assay. Type of test: biochemical. On the set-up: His tag (N); made in house; host or cells: E. coli. The essentials: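 Recombinant N-terminally His-tagged IDO1 purified from E. coli (50 nM) was incubated with compound or DMSO and 1.3 mM D-tryptophan, 5 mM L-ascorbic acid, methylene blue and 0.4 mg/mL catalase. The buffer was 50 mM potassium phosphate pH 7.5 with 0.1% BSA, at 24 °C for 1.5 hours. N'-formylkynurenine formation was then read continuously at 321 nm for 1 hour, and activity was taken as the slope. IC50 was calculated from remaining enzyme activity across increasing compound concentrations.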

In test [2] the target is T1, IDO1. In words: Hela cell-based IDO1 assay. Conditions: Hela cells. The essentials: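 HeLa cells were plated at 8000 per well in 96-well plates containing phenol red-free DMEM with 10% FBS, and after 4 hours compound dilutions made in DMSO were added together with IFN-γ (final 100 ng/mL) and 0.4 mM L-Trp before 48 hours at 37 °C, 5% CO2. Supernatants were deproteinised with trichloroacetic acid, mixed with 2% 4-(dimethylamino)benzaldehyde and read at 480 nm for kynurenine. Four-parameter logistic fits were run in XLfit. Potency was derived from these fits.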

The target of test [3] is T2, cellular TDO2 in HEK293-TDO2 cells (Homo sapiens, UniProt P48775).
T2 construct: expressed in transfected cells; host or cells: HEK293 (ATCC), stably transfected
T2 sequence (P48775 whole entry): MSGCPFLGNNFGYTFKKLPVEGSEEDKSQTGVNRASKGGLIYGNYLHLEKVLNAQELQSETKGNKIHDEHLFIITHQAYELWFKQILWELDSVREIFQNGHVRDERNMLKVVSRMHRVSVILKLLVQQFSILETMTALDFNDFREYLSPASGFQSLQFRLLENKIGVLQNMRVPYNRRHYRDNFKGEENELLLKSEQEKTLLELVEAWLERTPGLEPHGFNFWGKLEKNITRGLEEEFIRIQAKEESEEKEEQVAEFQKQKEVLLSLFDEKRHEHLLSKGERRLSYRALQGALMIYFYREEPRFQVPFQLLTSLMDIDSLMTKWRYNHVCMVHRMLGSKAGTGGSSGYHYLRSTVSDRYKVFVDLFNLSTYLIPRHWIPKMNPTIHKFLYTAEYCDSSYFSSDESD
Put plainly: 293-TDO2 cell-based assay (Kyn colorimetric). The conditions noted are these: 48 hours of incubation. On the procedure:
The inhibitory activity of TDO2 inhibitors is determined by using a colorimetric reaction to measure Kyn generated from L-Trp (L-Tryptophon) oxidation by cellular TDO2 in HEK293-TDO2 cells stably transfected with a plasmid expression of Tryptophan 2,3-dioxygenase (for short, 293-TDO2).
HEK293 cells were obtained from the American Type Culture Collection and 293-TDO2 were recovered in 10% FBS-containing phenol red-free DMEM medium. Cells were plated onto a 96-well plate (100 μl/well) at 10000 cells per well and kept at 37° C. in a humidified incubator supplied with 5% CO2. 4 hours later, Compounds at different concentrations diluted in dimethylsulfoxide (DMSO) were added to plate. Cells were kept at 37° C. in a humidified incubator supplied with 5% CO2. After 48 hours of incubation, 100 μl supernatant from each well was removed to a new plate. The protein in the medium was precipitated with the addition of 8 μl 6N trichloroacetic acid. The plate was incubated at 60° C. for 30 minutes and then centrifugation at 2500 rpm for 10 minutes to remove sediments. 80 μl supernatants were carefully removed to a new clean plate and added with an equal volume of 2% 4-(Dimethylamino) benzaldehyde (D2004, sigma) dissolved in glacial acetic acid. The absorbance at 480 nm wavelength derived from Kyn was measured using a PHERAstar FS plate reader (BMG LABTECH). The IC50 for each compound was derived from fitting the dose-response data to the four-parameter logistic model by using XLfit software (IDBS).

Where two headings read alike, the source gives them in different places.

T1 sequence (P14902 whole entry): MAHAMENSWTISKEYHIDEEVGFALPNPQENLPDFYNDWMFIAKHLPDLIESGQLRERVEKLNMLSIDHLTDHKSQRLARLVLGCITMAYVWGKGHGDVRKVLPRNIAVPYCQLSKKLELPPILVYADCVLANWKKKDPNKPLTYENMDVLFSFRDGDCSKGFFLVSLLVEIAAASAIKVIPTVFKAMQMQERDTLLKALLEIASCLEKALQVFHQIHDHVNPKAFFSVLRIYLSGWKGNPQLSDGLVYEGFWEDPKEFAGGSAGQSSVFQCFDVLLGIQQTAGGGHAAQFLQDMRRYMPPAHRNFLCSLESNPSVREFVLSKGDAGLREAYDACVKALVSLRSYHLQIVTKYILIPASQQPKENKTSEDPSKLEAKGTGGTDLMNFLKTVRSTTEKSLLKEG

As for `O[C@@H](c1c(C2CC2)ccn2cncc12)[C@H]1CC[C@H](c2ccc(OC3COC3)cc2)CC1` (single isomer, unassigned) [Example C117b], the IC50 in test [1] (read-out: Enzyme IC50 IDO1) was determined as 1100 nM. For the same molecule, the EC50 in test [2] and in test [3] was over 10 µM throughout.
`O[C@@H](c1c(C2CC2)ccn2cncc12)[C@H]1CC[C@H](c2ccc(OC3CCCC3)cc2)CC1` (single isomer, unassigned) [Example C118b]: the IC50 in test [1] (read-out: Enzyme IC50 IDO1) amounted to 3000 nM. In addition, the EC50 in test [2] and in test [3] was over 10 µM throughout.
Regarding `O[C@@H](c1c(C2CC2)ccn2cncc12)[C@H]1CC[C@H](c2ccc(C(F)(F)F)nc2)CC1` (single isomer, unassigned) [Example C120b], the IC50 in test [1] (read-out: Enzyme IC50 IDO1) was found to be 4800 nM. The concentration for a half-maximal effect (EC50) in test [2] and in test [3] was over 10 µM in each case.
For `O[C@@H](c1c(C2CC2)ccn2cncc12)[C@H]1CC[C@H](c2cccc3ccccc32)CC1` (single isomer, unassigned) [Example C121b], the concentration for half-maximal inhibition (IC50) in test [1] (read-out: Enzyme IC50 IDO1) stood at 1500 nM. Further, the EC50 in test [2] and in test [3] was over 10 µM each time.
Consider `O[C@H](c1c(C2CC2)ccn2cncc12)[C@H]1CC[C@H](c2cccc3ncccc32)CC1` (single isomer, unassigned) [Example C126a], for which the IC50 in test [1] (read-out: Enzyme IC50 IDO1) is 16 nM. For the same molecule, the concentration giving a half-maximal response (EC50) is 0.02 µM in test [2] and over 10 µM in test [3].
Turning to `O[C@@H](c1c(C2CC2)ccn2cncc12)[C@H]1CC[C@H](c2cccc3ncccc32)CC1` (single isomer, unassigned) [Example C126b], the IC50 in test [1] (read-out: Enzyme IC50 IDO1) is 1900 nM. Moreover, the EC50 in test [2] was 6.05 µM; in test [3] it was over 10 µM.
The corresponding values for `O[C@H](c1c(C2CC2)ccn2cncc12)[C@H]1CC[C@H](c2ccnc3ccccc32)CC1` (single isomer, unassigned) [Example C130a] are 17 nM, 0.044 µM and over 10 µM.
The corresponding values for `O[C@@H](c1c(C2CC2)ccn2cncc12)[C@H]1CC[C@H](c2ccnc3ccccc32)CC1` (single isomer, unassigned) [Example C130b] are 2500 nM, 6.22 µM and over 10 µM.
Consider `O[C@H](c1c(C2CC2)ccn2cncc12)[C@H]1CC[C@H](c2ccc(F)c(Cl)c2)CC1` (single isomer, unassigned) [Example C132a], for which the IC50 in test [1] (read-out: Enzyme IC50 IDO1) is 64 nM. For the same molecule, the results for the EC50 in test [2] and in test [3] were 0.188 µM and over 10 µM, respectively.
The matching figures for `O[C@@H](c1c(C2CC2)ccn2cncc12)[C@H]1CC[C@H](c2ccc(F)c(Cl)c2)CC1` (single isomer, unassigned) [Example C132b]: 2500 nM, over 10 µM and over 10 µM.
The corresponding values for `OC(c1c(C2CC2)ccn2cncc12)C1CCN(c2ccccc2)CC1` (single isomer, unassigned) [Example C136a] are 21 nM, 0.047 µM and over 10 µM.
The matching figures for `OC(c1c(C2CC2)ccn2cncc12)C1CCN(c2ccccc2)CC1` (single isomer, unassigned) [Example C136b]: 5400 nM, over 10 µM and over 10 µM.
Regarding `OC(c1c(C2CC2)ccn2cncc12)C1CCN(c2ccc(F)cc2)CC1` (single isomer, unassigned) [Example C137a], in test [1] (read-out: Enzyme IC50 IDO1), the IC50 was 26 nM. Moreover, the EC50 in test [2] is 0.074 µM; in test [3], over 10 µM.
The corresponding values for `OC(c1c(C2CC2)ccn2cncc12)C1CCN(c2ccc(F)cc2)CC1` (single isomer, unassigned) [Example C137b] are 4100 nM, over 10 µM and over 10 µM.
The matching figures for `N#Cc1ccc(N2CCC(C(O)c3c(C4CC4)ccn4cncc34)CC2)cc1` (single isomer, unassigned) [Example C144a]: 19 nM, 0.476 µM and over 10 µM.
The matching figures for `N#Cc1ccc(N2CCC(C(O)c3c(C4CC4)ccn4cncc34)CC2)cc1` (single isomer, unassigned) [Example C144b]: over 10000 nM, over 10 µM and over 10 µM.
For `OC(c1c(C2CC2)ccn2cncc12)C1CCN(c2ccc(F)c3ncccc23)CC1` (single isomer, unassigned) [Example C149b], in test [1] (read-out: Enzyme IC50 IDO1), the IC50 was 2400 nM. Besides, the EC50 was 2.91 µM in test [2] and over 10 µM in test [3].
Regarding `OC(c1c(C2CC2)ccn2cncc12)C1CCN(c2ccc(Cl)c3ncccc23)CC1` (single isomer, unassigned) [Example C154a], in test [1] (read-out: Enzyme IC50 IDO1), the 50% inhibitory concentration (IC50) amounted to 16 nM. Moreover, the results for the EC50 in test [2] and in test [3] were 0.018 µM and over 10 µM, respectively.
The corresponding values for `OC(c1c(C2CC2)ccn2cncc12)C1CCN(c2ccc(Cl)c3ncccc23)CC1` (single isomer, unassigned) [Example C154b] are 2900 nM, 6.45 µM and over 10 µM.
The corresponding values for `OC(c1c(C2CC2)ccn2cncc12)C1CCN(c2ccc(F)c3cccnc23)CC1` (single isomer, unassigned) [Example C155a] are 7500 nM, over 10 µM and over 10 µM.
As for `OC(c1c(C2CC2)ccn2cncc12)C1CCN(c2ccc(F)c3cccnc23)CC1` (single isomer, unassigned) [Example C155b], the IC50 in test [1] (read-out: Enzyme IC50 IDO1) is 26 nM. Besides, the EC50 was 0.04 µM in test [2] and over 10 µM in test [3].
The corresponding values for `O[C@@H](c1c(C2CC2)ccc2cncn12)[C@H]1CC[C@H](c2ccccc2)CC1` (single isomer, unassigned) [Example D101b] are 1300 nM, 6.14 µM and over 10 µM.
`COc1ccc([C@H]2CC[C@H]([C@@H](O)c3c(C4CC4)ccc4cncn34)CC2)cc1` (single isomer, unassigned) [Example D102b] came in with an IC50 in test [1] (heading: Enzyme IC50 IDO1) of over 10000 nM. In addition, the EC50 in test [2] was 6.77 µM; in test [3], over 10 µM.
On to `OC(c1c(C2CC2)ccc2cncn12)[C@H]1CC[C@@H](c2ccc(Cl)cc2)CC1` (single isomer, unassigned) [Example D103a], for which, in test [1] (read-out: Enzyme IC50 IDO1), the IC50 came out at 1900 nM. For the same molecule, the EC50 in test [2] and in test [3] was over 10 µM each time.
`OC(c1c(C2CC2)ccc2cncn12)[C@H]1CC[C@H](c2ccc(Cl)cc2)CC1` (single isomer, unassigned) [Example D103b]: the IC50 in test [1] (read-out: Enzyme IC50 IDO1) was 7800 nM. In addition, the results for the EC50 in test [2] and in test [3] were 6.88 µM and over 10 µM, respectively.
`O[C@@H](c1c(C2CC2)ccc2cncn12)[C@H]1CC[C@H](c2ccc(F)cc2)CC1` (single isomer, unassigned) [Example D104b]: in test [1] (read-out: Enzyme IC50 IDO1), the IC50 came to 9900 nM. Besides, the figures for the EC50 in test [2] and in test [3] were 6.83 µM and over 10 µM, respectively.
Regarding `O[C@@H](c1c(C2CC2)ccc2cncn12)[C@H]1CC[C@H](c2ccc(OC(F)(F)F)cc2)CC1` (single isomer, unassigned) [Example D105b], the IC50 in test [1] (read-out: Enzyme IC50 IDO1) was over 10000 nM. Also, the figures for the EC50 in test [2] and in test [3] were 3.9 µM and over 10 µM, respectively.
The matching figures for `OC(c1c(C2CC2)ccc2cncn12)[C@H]1CC[C@H](c2ccc(C(F)(F)F)nc2)CC1` (single isomer, unassigned) [Example D107a]: 36 nM, 1.26 µM and over 10 µM.
The corresponding values for `OC(c1c(C2CC2)ccc2cncn12)[C@H]1CC[C@H](c2ccc(C(F)(F)F)nc2)CC1` (single isomer, unassigned) [Example D107b] are 2300 nM, over 10 µM and over 10 µM.
The matching figures for `N#Cc1ccc([C@H]2CC[C@H]([C@@H](O)c3c(C4CC4)ccc4cncn34)CC2)cc1` (single isomer, unassigned) [Example D110b]: over 10000 nM, over 10 µM and over 10 µM.
Regarding `O=C(O)c1ccc([C@H]2CC[C@H]([C@H](O)c3c(C4CC4)ccc4cncn34)CC2)cc1` (single isomer, unassigned) [Example D111a], the IC50 in test [1] (read-out: Enzyme IC50 IDO1) came to 17 nM. The EC50 was 0.351 µM in test [2] and over 10 µM in test [3].

A word on the IC50: it is the concentration at which inhibition is half-maximal. The EC50 is the concentration that produces a half-maximal response.
